Measured values published in patent publication US20150327444A1, “PROCESS FOR THE OVERPRODUCTION OF SHIKIMIC ACID AND PHENOLIC ACIDS IN FRUIT AND VEGETABLE CROPS” (Instituto Tecnologico y de Estudios Superiores de Monterry, priority 2013, published 2015).

Legend:
carrots (Daucus carota) [1] = assay: Effect of drying on SA and PC in wounding-stressed, glyphosate-sprayed carrot tissue (Example 7); settings: for Increase in concentration in dehydrated glyphosated grated material stored for 24 hours: vs grated carrot prior to storage (0 hours)
Method: (§1) The plant material used in this example comprised carrots (Daucus carota) obtained from a local supermarket (Monterrey, N. L., Mexico), which were washed and disinfected with chlorinated water in a concentration of 200 ppm, pH 6.5, in a ratio of 1:3 kg of plant material:liters of chlorinated water, for 10 min. This stage was carried out by grating the carrot with a commercial vegetable grater.

carrots (Daucus carota) [2] = assay: Effect of wounding stress on accumulation of SA in grated carrot during storage (Example 1); settings: vs grated carrot prior to storage (0 hours); 25° C., no glyphosate
Method: as §1, with “min.” for “min. This stage was carried out by grating the carrot with a commercial vegetable grater.”
Stage a) The previously washed and disinfected carrots were subjected to post-harvest abiotic stress.
(§2) This stage was carried out by grating the carrot with a commercial vegetable grater. Stressed grated carrots having a diameter of 0.7 cm were obtained.
Stage b) Incubation of the grated carrot stressed in a) to encourage the production and accumulation of SA and PC. […]
The SA was extracted from the horticultural crop using two different processes based on the method of detection and quantification which was to be used (spectrophotometry or chromatography). […]
The SA extracts were analyzed following a method reported by Zelaya, I. A., Anderson, J. A., Owen, M. D. and Landes, R. D. Evaluation of spectrophotometric and HPLC methods for shikimic acid determination in plants: models in glyphosate-resistant and susceptible crops. […] The SA oxidized through the effect of the reaction was detected at 382 nm using a microplates reader (Synergy HT, Bio-Tek Instruments Inc., Winooski, Vt., USA). A standard curve for SA was constructed (1-1000 μM) to quantify the compound. […]

carrots (Daucus carota) [3] = assay: Effect of grinding on accumulation of SA in wounding-stressed grated carrot (Example 3); settings: vs grated carrot prior to storage (0 hours)
Method: as §1, with “min.” for “min. This stage was carried out by grating the carrot with a commercial vegetable grater.”
(§3) This stage was carried out by grating the carrot with a commercial vegetable grater. Stressed grated carrots having a diameter of 0.7 cm were obtained. […]
(§4) The SA extracts were analyzed following a method reported by Zelaya, I. A., Anderson, J. A., Owen, M. D. and Landes, R. D. Evaluation of spectrophotometric and HPLC methods for shikimic acid determination in plants: models in glyphosate-resistant and susceptible crops. […] The SA oxidized through the effect of the reaction was detected at 382 nm using a microplates reader (Synergy HT, Bio-Tek Instruments Inc., Winooski, Vt., USA). A standard curve for SA was constructed (1-1000 μM) to quantify the compound. The SA concentration was expressed as mg per kg of carrots in dry base (DB). The moisture content in the samples was determined by the method of drying in a stove (AACC 44-15A).

carrots (Daucus carota) [4] = assay: Effect of method of application (submergence or spraying) of glyphosate solution on SA accumulation in grated carrot (Example 4); settings: glyphosate 482 g/L, 24 hours at 25° C.
From the text: This difference is attributed to the removal of signal molecules which induce the response to the wounding as part of the submergence process. The (at least partial) removal of extracellular adenosine triphosphate (eATP, produced by the wounding stress effect) occurs in the submerged material, and this may be related to lesser generation of reactive oxygen species (ROS), thus reducing the yield of SA in comparison with application by spraying. Abiotic wounding stress activates the metabolic pathways involved in the production of phenolic compounds while the application of glyphosate makes it possible to block the flow of SA to the production of other compounds, thus bringing about an accumulation of SA in the horticultural crop. Thus the wounded carrots have been treated with a solution of glyphosate (0-482 g/L) using one of the two different methods of application (submergence and spraying), the spraying method being preferred because of its better yields, and stored for 24 hours to determine the combined effect of wounding stress and glyphosate application on the accumulation of SA and PC. In the first (submerged) method of application the grated material was submerged in a ratio of 1:2 to 1:4 (kg of plant material:liters of glyphosate solution), in such a way that said material was wholly submerged in the glyphosate solution. […]

carrots (Daucus carota) [5] = assay: Effect of grinding on SA and PC in wounding-stressed, glyphosate-sprayed carrot tissue (Example 8)
Method: as §1, with “min.” for “min. This stage was carried out by grating the carrot with a commercial vegetable grater.”
as §2
(§5) In this stage, the stressed grated plant tissue was treated by spraying (commercial sprayer) 100 mL of a concentrated solution of glyphosate (482 g/L).
The treated grated material was incubated at 25° C. […] at atmospheric pressure with a relative humidity of 65%, in total darkness, to determine the combined effect of wounding stress and glyphosate application on the accumulation of SA and PC.

carrots (Daucus carota) [6] = assay: HPLC-PDA quantification of SA and individual phenolic compounds in grated carrot sprayed with glyphosate at different concentrations (Example 5); settings: after 24 hours' storage; estimated from HPLC-PDA
carrots (Daucus carota) [7] = assay: Effect of drying on accumulation of SA in wounding-stressed grated carrot (Example 2); settings: vs grated carrot prior to storage (0 hours)
Method: as §1, with “min.” for “min. This stage was carried out by grating the carrot with a commercial vegetable grater.”
as §3, §4

carrots (Daucus carota) [8] = assay: Overproduction of SA and PC by wounding stress and sprayed glyphosate 482 g/L in carrot tissue (Example 6)
Method: as §1, with “min.” for “min. This stage was carried out by grating the carrot with a commercial vegetable grater.”
as §2, §5
Finally, the treated grated material was incubated at 25° C. for 24 hours at atmospheric pressure with a relative humidity of 65%, in total darkness, to determine the combined effect of wounding stress and glyphosate application on the accumulation of SA and PC.

[9] = sprayed 482 g/L glyphosate, vs control samples (0 hours)
[10] = vs grated carrot before storage (0 hours)

Structure (SMILES)	Increase in concentration after 24 hours' storage (carrots (Daucus carota) [1]; [9])	Increase in concentration in dehydrated glyphosated grated material stored for 24 hours (carrots (Daucus carota) [1])	Increase in concentration in grated carrot stored for 24 hours (carrots (Daucus carota) [2])	Increase in concentration in nutraceutical powder stored for 24 hours (carrots (Daucus carota) [3]; after drying and grinding)	Increase in concentration in grated carrot stored for 24 hours (carrots (Daucus carota) [3]; no glyphosate)	Increase in accumulation, grated carrot sprayed with glyphosate vs submerged samples (carrots (Daucus carota) [4])	Increase in concentration after 24 hours of storage (carrots (Daucus carota) [5]; [9])	Increase in concentration in glyphosated powder stored for 24 hours (carrots (Daucus carota) [5]; [10])	Increase in concentration in grated carrot not sprayed with glyphosate (carrots (Daucus carota) [6])	Increase in concentration in dehydrated nutraceutical grated material stored for 24 hours (carrots (Daucus carota) [7]; after drying)	Increase in concentration in grated carrot stored for 24 hours (carrots (Daucus carota) [7]; no glyphosate)	Increase in concentration on spraying a concentrated solution of glyphosate onto carrot tissue stressed by wounding (carrots (Daucus carota) [8])	Increase in concentration after 24 hours of storage (carrots (Daucus carota) [8]; [9])	Increase in content in the 482 g/L glyphosate treatment (carrots (Daucus carota) [1]; vs control samples at 24 hours)	Increase in content in the 482 g/L glyphosate treatment (carrots (Daucus carota) [5]; vs control samples at 24 hours)	Increase in concentration in dehydrated glyphosated grated material stored for 24 hours (carrots (Daucus carota) [5]; [10])	Increase in content in the 482 g/L glyphosate treatment (carrots (Daucus carota) [8]; vs control samples at 24 hours)
O=C(O)C1=C[C@@H](O)[C@@H](O)[C@H](O)C1 (single isomer, unassigned) [SA, shikimic acid]	~1766%	~1550%	~50%	~37%	~48%	~44% and ≈ 44%	~1720%	~1470%	~77%	~40%	~45%	more than 1000%	~1735%				
O=C(/C=C/c1ccc(O)c(O)c1)O[C@@H]1C[C@](O)(C(=O)O)C[C@@H](O)[C@H]1O (single isomer, unassigned) [CA, chlorogenic acid]		~1700%										> 5000%		~1930%	~1940%	~11620%	~1980%
